Data reported in PMC11423305, “Structure-Based Design of CBP/EP300 Degraders: When Cooperativity Overcomes Affinity” (JACS Au, 2024).

Biological target: T1, CBP-BRD:CRBN thalidomide binding domain ternary complex (Homo sapiens, UniProt Q92793+Q96SW2)
T1 construct: GST-CBP (human, residues 1081-1197); the C-terminus of CRBN (human, residues 318-442); His6 with TEV cleavage site (N, cleaved yes); made in house; host or cells: Rosetta (DE3) cells (E. coli)
Experiment: TR-FRET CBP-BRD:PROTAC:CRBN ternary complex formation
Method: (PMSF), and 1 mM EDTA) and lysed by sonication. The lysates were clarified by centrifugation (18,000 rpm, 4 °C, 1 h).
For GST-CBP the soluble proteins were loaded onto a column packed with glutathione sepharose 4B (GE Healthcare) and subsequently eluted with 10 mM reduced glutathione in buffer containing 20 mM Tris-HCl pH 8.0, and 150 mM NaCl. Finally, a size exclusion step (HiLoad 16/600 Superdex 200 pg column from GE Healthcare) was used to further purify the protein in buffer containing 50 mM HEPES pH 7.5 and 150 mM NaCl. For His-CRBN and His-CRBN-Avi(biotin), the soluble fractions were loaded onto the HisTrap FF crude column (GE Healthcare) and washed with lysis buffer supplemented with 50 mM imidazole. The proteins were eluted with a buffer containing 250 mM imidazole, 100 mM Tris-HCl pH 8.0 and 500 mM NaCl. For His-CRBN-Avi(biotin) only, recombinant TEV protease was used to cleave the His6-tag during overnight dialysis at 4 °C against buffer containing 100 mM Tris-HCl pH 8.0 and 500 mM NaCl. The dialyzed sample was passed through the HisTrap FF crude column to remove His6-tagged TEV protease and uncleaved protein. […]
The maximal control contained no PROTAC, the blank contained no SK-20 and no PROTAC – these were replaced by the appropriate buffer. […] The samples were incubated for 3 h (20 °C, dark) and the signal was detected using the Infinite M1000 plate reader (Tecan). After excitation at 317 nm, emission at 620 and 665 nm was recorded. […]
were determined according to the following equation:
activity (%) = ΔF ∗ 100 = F−Fb ∗ 100 , where Ft is the TR-FRET signal in the absence of any compound (maximal control, 100 % activity), Fb the TR-FRET signal in the absence of the GST -CBP (blank, 0 % activity) and F the TR -FRET signal in the presence of the compound. Dose -response curves were plotted in GraphPad Prism 10.2.3 and fitted with nonlinear regression “log(inhibitor) vs. normalized response – variable slope”, from which IC 50 values were determined. […]

T1 sequence (Q92793 1081-1197): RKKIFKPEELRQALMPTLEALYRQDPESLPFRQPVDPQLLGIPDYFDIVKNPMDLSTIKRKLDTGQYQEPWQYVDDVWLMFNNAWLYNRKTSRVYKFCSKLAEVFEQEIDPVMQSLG
T1 sequence (Q96SW2 318-442): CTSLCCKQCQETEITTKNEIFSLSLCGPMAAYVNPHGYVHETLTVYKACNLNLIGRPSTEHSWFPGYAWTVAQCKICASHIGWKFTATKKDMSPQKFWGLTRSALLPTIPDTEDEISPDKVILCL

- ternary complex formation (TR-FRET) (CBP-BRD and CRBN-thalidomide binding domain labeled with TR-FRET pair): robust formation of the ternary complex
- PROTAC concentration at peak of hook curve (TR-FRET ternary complex): around 1 μM
Compound: Cc1cc2c(NC(=O)c3cc(NC(=O)CCCCCCCCCCNc4cccc5c4C(=O)N(C4CCC(=O)NC4=O)C5=O)cc(-c4ccn(C)n4)c3)cccc2nn1 (centres unmarked) [dCE-2]
